This is an account of results in publication PMC6104608, “Design, synthesis, and evaluation of curcumin analogues as potential inhibitors of bacterial sialidase” (Journal of Enzyme Inhibition and Medicinal Chemistry, 2018).

The target of data set [1] is T1, S. pneumoniae Nan A (Streptococcus pneumoniae, UniProt P62575).
T1 construct: 6x His-tag (C); made in house; host or cells: E. coli BL21 (DE3)
Kind of data set: Fluorescence-based inhibition assay of S. pneumoniae Nan A with MUNANA substrate. The note with it: for IC50: 2.2 nM Nan A, 50 µM substrate, pH 7.5, triplicate, read-out: IC50 against S. pneumoniae Nan A. The data set is classed as biochemical.

Data set [2] deals with T2, Vibrio cholerae sialidase (Vibrio cholerae serotype O1, UniProt P0C6E9).
T2 construct: purchased Sigma 72197
T2 sequence (P0C6E9 25-781): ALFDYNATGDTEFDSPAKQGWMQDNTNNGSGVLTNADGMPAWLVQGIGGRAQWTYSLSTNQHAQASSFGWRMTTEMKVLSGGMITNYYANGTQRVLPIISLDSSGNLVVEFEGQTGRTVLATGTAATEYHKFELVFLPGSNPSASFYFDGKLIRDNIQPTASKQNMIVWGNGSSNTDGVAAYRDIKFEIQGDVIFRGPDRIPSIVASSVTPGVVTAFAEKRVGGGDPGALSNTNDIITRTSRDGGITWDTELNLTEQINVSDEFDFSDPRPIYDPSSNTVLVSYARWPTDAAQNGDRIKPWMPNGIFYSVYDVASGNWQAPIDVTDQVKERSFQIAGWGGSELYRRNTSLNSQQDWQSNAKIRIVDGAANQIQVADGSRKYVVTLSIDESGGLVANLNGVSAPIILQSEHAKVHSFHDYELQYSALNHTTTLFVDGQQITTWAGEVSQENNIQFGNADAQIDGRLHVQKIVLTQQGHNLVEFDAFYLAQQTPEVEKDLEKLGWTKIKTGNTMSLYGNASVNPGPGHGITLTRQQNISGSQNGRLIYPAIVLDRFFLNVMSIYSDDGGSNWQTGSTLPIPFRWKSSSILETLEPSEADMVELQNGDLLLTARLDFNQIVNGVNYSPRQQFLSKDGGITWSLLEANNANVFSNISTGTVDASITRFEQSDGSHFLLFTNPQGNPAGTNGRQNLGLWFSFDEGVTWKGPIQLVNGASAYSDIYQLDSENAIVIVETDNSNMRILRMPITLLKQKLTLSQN
Kind of data set: biochemical.

Data set [3] addresses T1, S. pneumoniae Nan A. The experiment in a line: Enzyme kinetic study (inhibition mechanism and Ki) on Nan A. The note with it: for Inhibition type against Nan A: Lineweaver-Burk and Dixon plots; for Ki: nonlinear regression, SigmaPlot Enzyme Kinetics, read-out: Ki against Nan A. The data set is classed as biochemical.

T1 sequence (P62575 319-822 limits assumed): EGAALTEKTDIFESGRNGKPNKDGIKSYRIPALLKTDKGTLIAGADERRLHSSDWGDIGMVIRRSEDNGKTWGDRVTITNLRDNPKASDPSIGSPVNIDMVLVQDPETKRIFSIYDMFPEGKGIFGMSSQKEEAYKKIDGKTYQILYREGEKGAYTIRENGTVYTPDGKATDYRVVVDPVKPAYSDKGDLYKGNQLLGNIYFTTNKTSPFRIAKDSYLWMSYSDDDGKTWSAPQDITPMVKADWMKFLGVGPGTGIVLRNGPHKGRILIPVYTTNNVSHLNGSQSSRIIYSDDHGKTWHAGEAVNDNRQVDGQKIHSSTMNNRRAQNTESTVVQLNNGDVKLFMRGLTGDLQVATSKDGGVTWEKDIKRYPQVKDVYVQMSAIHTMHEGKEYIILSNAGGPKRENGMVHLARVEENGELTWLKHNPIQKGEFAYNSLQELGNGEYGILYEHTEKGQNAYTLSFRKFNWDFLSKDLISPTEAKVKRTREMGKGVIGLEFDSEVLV

Usually IC50 stands for the point on the concentration scale where inhibition reaches its midpoint. What is called melting point is the temperature, or range, at which the solid turns liquid. Compound `COc1ccc(/C=C/C(O)=C/C(=O)/C=C/c2ccc(O)c(OC)c2)cc1` [Compound 5o, 5-Hydroxy-7-(4-hydroxy-3-methoxyphenyl)-1-(4-methoxyphenyl)hepta-1,4,6-trien-3-one] returned a melting point of 143 to 145 °C. Moreover, the IC50 at S. pneumoniae Nan A [1] amounted to 1.2 ± 0.1 µM. The compound also displayed an IC50 in data set [2] of 4.2 ± 0.8 µM.

`COc1cc(C=CC(O)=C2CCCC(=Cc3ccc(O)c(OC)c3)C2=O)ccc1O` [Compound 4f, 2–(1-Hydroxy-3-(4-hydroxy-3-methoxyphenyl)allylidene)-6-(4-hydroxy-3-methoxybenzylidene)cyclohexan-1-one]: the melting point fell in the range of 182 to 183 °C. Also, the IC50 at S. pneumoniae Nan A [1] was 4.7 ± 0.5 µM. Moreover, the IC50 in data set [2] worked out at 24.9 ± 1.8 µM.

On to `COc1ccc(/C=C/C(=O)/C=C(O)/C=C/c2ccc(OC)c(OC)c2)cc1OC` [Compound 4c, 1,7-Bis(3,4-dimethoxyphenyl)-5-hydroxyhepta-1,4,6-trien-3-one], for which the IC50 at S. pneumoniae Nan A [1] amounted to 3.4 ± 1 µM; in data set [2], 21.5 ± 7 µM.

For the compound `COc1cc(/C=C/C(=O)/C=C(O)/C=C/c2ccc(F)cc2)ccc1O` [Compound 5l, 1-(4-Fluorophenyl)-5-hydroxy-7-(4-hydroxy-3-methoxyphenyl)hepta-1,4,6-trien-3-one], the melting point was 146 to 147 °C. Moreover, the IC50 on S. pneumoniae Nan A [1] was 1.8 ± 0.2 µM.

On to `COC(=O)CCCOc1ccc(C=CC(=O)C=C(O)C=Cc2ccc(O)c(OC)c2)cc1OC` [Compound 5i, Methyl 4-(4-(5-hydroxy-7–(4-hydroxy-3-methoxyphenyl)-3-oxohepta-1,4,6-trien-1-yl)-2-methoxyphenoxy)-butanoate], for which the melting point was in the range of 100 to 101 °C. In addition, the IC50 at S. pneumoniae Nan A [1] amounted to 1 ± 0.5 µM. This compound also returned an IC50 in data set [2] of 9.5 ± 1.5 µM.

As usually defined, the Ki is a dissociation constant, usually derived from enzyme kinetics or from competition with a known ligand. `COc1ccc(/C=C/C(=O)/C=C(O)/C=C/c2ccc(O)c(O)c2)cc1O` [Compound 5e, 1-(3,4-Dihydroxyphenyl)-5-hydroxy-7-(3-hydroxy-4-methoxyphenyl)hepta-1,4,6-trien-3-one]: the melting point was in the range of 203 to 204 °C. The IC50 at S. pneumoniae Nan A [1] is 0.2 ± 0.1 µM. The “fold improvement in Nan A inhibitory activity over curcumin” value at S. pneumoniae Nan A [1] (IC50 ratio versus curcumin (4a)) is 3.0 fold. The compound further returned an IC50 in data set [2] of 4.8 ± 1.5 µM. For the same compound, at S. pneumoniae Nan A [3], the “Inhibition type against Nan A” value is “competitive inhibition” and the Ki is 0.14 µM.

As to `COc1cc(/C=C/C(=O)/C=C(O)/C=C/c2ccc([N+](=O)[O-])cc2)ccc1O` [Compound 5j, 5-Hydroxy-7-(4-hydroxy-3-methoxyphenyl)-1-(4-nitrophenyl)hepta-1,4,6-trien-3-one], the melting point was 204 to 205 °C. Also, the IC50 on S. pneumoniae Nan A [1] stood at 0.9 ± 0.3 µM. For the same compound, in data set [2], inhibition was half-maximal at 6.9 ± 1.8 µM (IC50).

On to `COc1cc(CCC(=O)/C=C(\O)CCc2ccc(O)c(OC)c2)ccc1O` [Compound 6, 1,7-Bis(4-hydroxy-3-methoxyphenyl)heptane-3,5-dione], for which, at S. pneumoniae Nan A [1], the IC50 is 82.1 ± 7.6 µM.

Regarding `COc1cc(/C=C/C(=O)/C=C(O)/C=C/c2ccccc2)ccc1O` [Compound 5h, 5-Hydroxy-7-(4-hydroxy-3-methoxyphenyl)-1-phenylhepta-1,4,6-trien-3-one], the melting point lay in the range of 135 to 137 °C. The IC50 on S. pneumoniae Nan A [1] is 7.1 ± 0.1 µM.

As to `COc1cc(/C=C/C(=O)/C=C(O)/C=C/c2ccc(OC(C)=O)c(OC)c2)ccc1OC(C)=O` [Compound 7, 3-Hydroxy-5-oxohepta-1,3,6-triene-1,7-diyl)bis(2-methoxy-4,1-phenylene) diacetate], the IC50 at S. pneumoniae Nan A [1] came out at 2.6 ± 0.6 µM; in data set [2], 37.5 ± 3.5 µM.

Turning to `COc1cc(C=CC(O)=CC(=O)C=Cc2cccnc2)ccc1O` [Compound 5g, 5-Hydroxy-7-(4-hydroxy-3-methoxyphenyl)-1-(pyridin-3-yl)hepta-1,4,6-trien-3-one], the melting point was 185 °C (dec.). Also, the IC50 on S. pneumoniae Nan A [1] was 4.4 ± 0.1 µM. The compound also returned an IC50 in data set [2] of 43.6 ± 0.1 µM.

As to `CCOc1cc(/C=C/C(O)=C/C(=O)/C=C/c2ccc(O)c(OC)c2)ccc1O` [Compound 5f, 1-(3-Ethoxy-4-hydroxyphenyl)-5-hydroxy-7-(4-hydroxy-3-methoxyphenyl)hepta-1,4,6-trien-3-one], the melting point lay in the range of 182 to 183 °C. Also, the IC50 at S. pneumoniae Nan A [1] came to 1.5 ± 0.8 µM. For the same compound, the IC50 in data set [2] was 6.7 ± 0.6 µM.

Consider `COc1ccc(/C=C/C(O)=C/C(=O)/C=C/c2ccc(OC)c(OC)c2)cc1O` [Compound 5b, 7-(3,4-Dimethoxyphenyl)-5-hydroxy-1-(3-hydroxy-4-methoxyphenyl)hepta-1,4,6-trien-3-one], for which the melting point fell in the range of 155 to 158 °C. Further, at S. pneumoniae Nan A [1], the IC50 came to 0.6 ± 0.1 µM. The IC50 in data set [2] stood at 9.2 ± 0.2 µM.

In turn, `COc1cc(/C=C/C(=O)/C=C(O)/C=C/c2ccc(Br)cc2)ccc1O` [Compound 5m, 1-(4-Bromophenyl)-5-hydroxy-7-(4-hydroxy-3-methoxyphenyl)hepta-1,4,6-trien-3-one] returned a melting point of 148 to 149 °C. Moreover, the IC50 at S. pneumoniae Nan A [1] turned out to be 1 ± 0.2 µM.

`COc1ccc(C=CC(=O)C=C(O)C=Cc2ccc(OC)c(O)c2)cc1O` [Compound 4b, 5-Hydroxy-1,7-bis(3-hydroxy-4-methoxyphenyl)hepta-1,4,6-trien-3-one] showed a melting point of 182 to 183 °C. For the same compound, the IC50 on S. pneumoniae Nan A [1] came out at 1 ± 0.4 µM. In addition, half-maximal inhibition in data set [2] (IC50) required 7.6 ± 0.5 µM.

With `COc1cc(/C=C/C(O)=C/C(=O)/C=C/c2ccc(OC)c(OC)c2)ccc1O` [Compound 5a, 7-(3,4-Dimethoxyphenyl)-5-hydroxy-1-(4-hydroxy-3-methoxyphenyl)hepta-1,4,6-trien-3-one], the IC50 at S. pneumoniae Nan A [1] came out at 1.5 ± 0.7 µM; in data set [2], 11.7 ± 0.2 µM.

In the case of `COc1cc(C=Cc2cc(C=Cc3ccc(O)c(OC)c3)[nH]n2)ccc1O` [Compound 8], the IC50 amounted to 6.2 ± 1.5 µM at S. pneumoniae Nan A [1] and 41.6 ± 18.7 µM in data set [2].

With `COc1cc(/C=C/C(=O)/C=C(O)/C=C/c2ccc(O)c(O)c2)ccc1O` [Compound 5d, 1-(3,4-Dihydroxyphenyl)-5-hydroxy-7-(4-hydroxy-3-methoxyphenyl)hepta-1,4,6-trien-3-one], the IC50 on S. pneumoniae Nan A [1] worked out at 0.7 ± 0.2 µM; in data set [2], 2.7 ± 0.8 µM.

For `COc1cc(/C=C/C(=O)/C=C(O)/C=C/c2ccc(O)c(OC)c2)ccc1O` [Compound 4a, curcumin], the IC50 on S. pneumoniae Nan A [1] was determined as 0.6 ± 0.1 µM. This compound also showed an IC50 in data set [2] of 5.3 ± 0.7 µM. In addition, at S. pneumoniae Nan A [3], the “Inhibition type against Nan A” value is on record as “noncompetitive inhibition” and the Ki stood at 1.3 µM.

For the compound `O=C(C=Cc1ccc(O)cc1)C=C(O)C=Cc1ccc(O)cc1` [Compound 4e, 5-Hydroxy-1,7-bis(4-hydroxyphenyl)hepta-1,4,6-trien-3-one], on S. pneumoniae Nan A [1], the IC50 was determined as 4 ± 1.2 µM. Moreover, in data set [2], the IC50 worked out at 15.1 ± 0.1 µM. Moreover, at S. pneumoniae Nan A [3], the “Inhibition type against Nan A” value is recorded as “noncompetitive inhibition” and the Ki came out at 1.2 µM.

In the case of `O=C(C=Cc1ccc(O)c(O)c1)C=C(O)C=Cc1ccc(O)c(O)c1` [Compound 4d, 1,7-bis(3,4-dihydroxyphenyl)-5-hydroxyhepta-1,4,6-trien-3-one], the melting point was 300 °C (dec.). For the same compound, the 50% inhibitory concentration (IC50) at S. pneumoniae Nan A [1] was determined as 1.5 ± 0.7 µM. The half-maximal inhibitory concentration (IC50) in data set [2] was 11.9 ± 2 µM.

Regarding `COc1cc(/C=C/C(=O)/C=C(O)/C=C/c2ccc(O)cc2)ccc1O` [Compound 5p, 5-Hydroxy-7-(4-hydroxy-3-methoxyphenyl)-1-(4-hydroxyphenyl)hepta-1,4,6-trien-3-one], the IC50 on S. pneumoniae Nan A [1] is 0.6 ± 0.2 µM; in data set [2] it was 4.3 ± 0.7 µM.

In turn, `COc1cc(/C=C/C(=O)/C=C(O)/C=C/c2ccc(N3CCCCC3)cc2)ccc1O` [Compound 5s, 5-Hydroxy-7-(4-hydroxy-3-methoxyphenyl)-1-(4-(piperidin-1-yl)phenyl)hepta-1,4,6-trien-3-one] came in with a melting point of 204 to 205 °C. For the same compound, the IC50 at S. pneumoniae Nan A [1] came out at 1.5 ± 0.1 µM.

As for `COc1cc(/C=C/C(=O)/C=C(O)/C=C/c2ccc(N(C)C)cc2)ccc1O` [Compound 5r, 1-(4-(Dimethylamino)phenyl)-5-hydroxy-7-(4-hydroxy-3-methoxyphenyl)hepta-1,4,6-trien-3-one], the IC50 was 1.5 ± 0.2 µM on S. pneumoniae Nan A [1] and 1.9 ± 0.2 µM in data set [2].

In turn, `COc1cc(/C=C/C(=O)/C=C(O)/C=C/c2ccc(N)cc2)ccc1O` [Compound 5q, 1-(4-Aminophenyl)-5-hydroxy-7-(4-hydroxy-3-methoxyphenyl)hepta-1,4,6-trien-3-one] yielded a melting point of 99 to 100 °C. For the same compound, the IC50 at S. pneumoniae Nan A [1] came to 1.6 ± 0.1 µM. The compound further displayed an IC50 in data set [2] of 2.9 ± 0.9 µM. Moreover, at S. pneumoniae Nan A [3], the “Inhibition type against Nan A” value is recorded as “noncompetitive inhibition” and the Ki was 0.8 µM.

In turn, `COc1cc(/C=C/C(=O)/C=C(O)/C=C/c2ccc(C(F)(F)F)cc2)ccc1O` [Compound 5k, 5-Hydroxy-7-(4-hydroxy-3-methoxyphenyl)-1-(4-(trifluoromethyl)phenyl)hepta-1,4,6-trien-3-one] returned a melting point of 158 to 160 °C. The IC50 on S. pneumoniae Nan A [1] was 1 ± 0.1 µM.

With `COc1cc(/C=C/C(=O)/C=C(O)/C=C/c2ccc(NC(C)=O)cc2)ccc1O` [Compound 5n, N-(4–(5-Hydroxy-7–(4-hydroxy-3-methoxyphenyl)-3-oxohepta-1,4,6-trien-1-yl)phenyl)acetamide], the melting point lay within 183 to 185 °C. Further, the IC50 at S. pneumoniae Nan A [1] was found to be 1.8 ± 0.4 µM. Besides, half-maximal inhibition in data set [2] (IC50) required 6.8 ± 0.8 µM.

Compound `COc1ccc(/C=C/C(O)=C/C(=O)/C=C/c2ccc(O)c(OC)c2)cc1O` [Compound 5c, 5-Hydroxy-7-(4-hydroxy-3-methoxyphenyl)-1-(3-hydroxy-4-methoxyphenyl)hepta-1,4,6-trien-3-one] had a melting point of 137 to 140 °C. Moreover, at S. pneumoniae Nan A [1], the IC50 was 1 ± 0.4 µM. Further, the IC50 in data set [2] is 7.7 ± 0.7 µM.
